Data set [1] concerns the target Kappa-type opioid receptor (Mus musculus) (UniProt P33534). As to the kind of experiment: Antagonist activity at mouse KOR expressed in HEK293 cells coexpressing EGFP/beta-arrestin2 fused NanoLuc assessed as reduction in beta-arrestin2 recruitment at 10 uM preincubated with furimazine for 5 mins followed by peptide addition and measured for 30 mins by BRET assay. It is filed as functional, cell-based.

The target is the same in data set [2]. As to the kind of experiment: Antagonist activity at mouse KOR expressed in HEK293 cells coexpressing EGFP/beta-arrestin2 fused NanoLuc assessed as reduction in beta-arrestin2 recruitment by measuring residual BRET signal at 10 uM preincubated with furimazine for 5 mins followed by peptide addition and measured for 30 mins by BRET assay relative to control. It is filed as functional, cell-based. As to conditions: filed as antagonist.

Data set [3] has as its target T1, Kappa-type opioid receptor (Mus musculus, UniProt P33534). Nature of the data set: Modulation of mouse KOR expressed in HEK293 cells assessed as inhibition of forskolin-induced adenylyl cyclase-dependent cAMP formation incubated for 30 mins by HTRF analysis. It is filed as functional, cell-based.
Data set [4] concerns the target T1, Kappa-type opioid receptor. Nature of the data set: Displacement of [3H]diprenorphine from mouse KOR expressed in HEK293 cell membrane assessed as inhibition constant incubated for 1 hr by radioligand displacement assay. In kind it is cell membranes. (In general: Displacement assays read how much labelled ligand stays bound in the presence of the test substance.)

In data set [5] the target is Delta-type opioid receptor (Mus musculus) (UniProt P32300). Nature of the data set: Displacement of [3H]diprenorphine from mouse DOR expressed in HEK293 cell membrane at 10 uM incubated for 1 hr by radioligand displacement assay. In kind it is cell membranes.
Data set [6] addresses Mu-type opioid receptor (Mus musculus) (UniProt P42866). Nature of the data set: Displacement of [3H]diprenorphine from mouse MOR expressed in HEK293 cell membrane at 10 uM incubated for 1 hr by radioligand displacement assay. It is filed as cell membranes.
The nature of data set [7]: Stability in human serum assessed as degradation at 3 mg/ml measured after 15 mins by RP-HPLC analysis. In kind it is ADME, cell-free.
Data set [8] has as its target Kappa-type opioid receptor (Mus musculus) (UniProt P33534). As to the kind of experiment: Antagonist activity at mouse KOR expressed in HEK293 cells assessed as forskolin-induced adenylyl cyclase-dependent cAMP formation at 10 uM incubated for 30 mins by HTRF analysis. It is filed as functional, cell-based. As to conditions: filed as antagonist. Background: cAMP levels reflect the balance of adenylyl cyclase and phosphodiesterase activity.

Data set [9] has as its target T1, Kappa-type opioid receptor. As to the kind of experiment: Partial agonist activity at mouse KOR expressed in HEK293 cells assessed as inhibition of forskolin-induced adenylyl cyclase-dependent cAMP formation incubated for 30 mins by HTRF analysis. In kind it is functional, cell-based.
Data set [10] has as its system Mus musculus. As to the kind of experiment: In vivo antagonist activity at KOR in CD-1 mouse model assessed as reversal of U50,488 induced motor impairment by measuring increase in latency to fall at 20 mg/kg, sc pretreated for 15 mins followed by U50,488 stimulation and measured at 30 mins by rotarod assay. As to conditions: time 45.0 min. In kind it is functional, organism-based.

Data set [11] concerns Mus musculus. As to the kind of experiment: In vivo antagonist activity at KOR in CD-1 mouse model of U50,488 induced acute thermal nociception at 20 mg/kg, sc pretreated for 15 mins followed by U50,488 stimulation and measured after 30 to 60 mins by radiant heat tail flick assay. In kind it is functional, organism-based. As to conditions: time 45-75 min.
Data set [12] concerns the target Kappa-type opioid receptor (Mus musculus) (UniProt P33534). Nature of the data set: Antagonist activity at KOR in C57BL/6 mouse DRG neurons assessed as inhibition of U50,488 induced calcium mobilization at 1 to 10 uM preincubated with compound followed by U50,488 addition and measured for 12 mins by single cell calcium microfluorimetry analysis. It is filed as functional, cell-based. As to conditions: DRG neuron, filed as antagonist, dose 1-10 µM. On the technique in general: A change in cytosolic calcium serves as a functional read-out for many receptors and channels.

Data set [13] concerns the target T1, Kappa-type opioid receptor. Nature of the data set: Competitive antagonist activity at mouse KOR expressed in HEK293 cells at 0.3 to 10 uM preincubated for 30 mins followed by U50,488 addition and measured after 30 mins by fluorescence based schild regression analysis. In kind it is functional, cell-based. As to conditions: read-out: pA2 (converted).
The test system of data set [14] is Mus musculus. Nature of the data set: In vivo antagonist activity at KOR in CD-1 mouse model of U50,488 induced acute thermal nociception at 10 mg/kg, sc pretreated for 24 hrs followed by U50,488 stimulation and measured after 30 to 60 mins by radiant heat tail flick assay. In kind it is functional, organism-based. As to conditions: time lower 24.5 hrs, time upper […].

The values below come from ChEMBL document CHEMBL5365439, “Development of a Selective Peptide κ-Opioid Receptor Antagonist by Late-Stage Functionalization with Cysteine Staples” (J Med Chem, 2023).

Activity calls are given as the source filed them. No cut-off for these calls is given here. Numbered stars: 1 amine (or outer) side, 2 acyl side, 3 side chain; on linkers, the order of the positions; unused ones are H or OH. Bridge positions count the residues as written; N and C are the ends. Square brackets hold non-standard residues; d marks the D form. Peptide text beside a SMILES is read from it. CH2COCH2 = O=C(C[*:1])C[*:2]; CH2 = C([*:1])[*:2]; Mpa = O=C(O)CCS

For `CC[C@H](C)[C@@H]1NC(=O)[C@H](CCCNC(=N)N)NC(=O)[C@H](CCCNC(=N)N)NC(=O)[C@H](CC(C)C)NC(=O)[C@H](Cc2ccccc2)NC(=O)CNC(=O)CNC(=O)[C@H](Cc2ccc(O)cc2)NC(=O)CCSCC(=O)CSC[C@@H](C(=O)N[C@@H](CCCCN)C(=O)N[C@@H](CC(C)C)C(=O)N[C@@H](CCCCN)C(=O)O)NC(=O)[C@H](CCCNC(=N)N)NC1=O` ([Mpa]YGGFLRRIRCKLK-OH; linker 1-11 via CH2COCH2), the outcome in data set [1] was inactive.
The term EC50 denotes the concentration giving half of the maximal effect. One may read the Ki as a dissociation constant, usually derived from enzyme kinetics or from competition with a known ligand. Take `CC(C)C[C@H](NC(=O)[C@H](CCCCN)NC(=O)[C@@H]1CCCN1C(=O)[C@H](CCCNC(=N)N)NC(=O)[C@@H]1CSCC(=O)CSCCC(=O)N[C@@H](Cc2ccc(O)cc2)C(=O)NCC(=O)NCC(=O)N[C@@H](Cc2ccccc2)C(=O)N[C@@H](CC(C)C)C(=O)N[C@@H](CCCNC(=N)N)C(=O)N[C@@H](CCCNC(=N)N)C(=O)N1)C(=O)N[C@@H](CCCCN)C(N)=O` ([Mpa]YGGFLRRCRPKLK-NH2; linker 1-9 via CH2COCH2): the Activity in data set [2] was found to be 25%. For the same compound, in data set [3], the EC50 came to 0.74 µM. Besides, the Ki in data set [4] stood at 0.032 µM. The result in data set [5] and in data set [6] was inactive.
On to `CC(C)C[C@H](NC(=O)[C@H](CCCCN)NC(=O)[C@@H]1CCCN1C(=O)[C@H](CCCNC(=N)N)NC(=O)[C@@H]1CSCSCCC(=O)N[C@@H](Cc2ccc(O)cc2)C(=O)NCC(=O)NCC(=O)N[C@@H](Cc2ccccc2)C(=O)N[C@@H](CC(C)C)C(=O)N[C@@H](CCCNC(=N)N)C(=O)N[C@@H](CCCNC(=N)N)C(=O)N1)C(=O)N[C@@H](CCCCN)C(=O)O` ([Mpa]YGGFLRRCRPKLK-OH; linker 1-9 via CH2), for which, in [7], the Stability entry is recorded as “Unstable”. Besides, the outcome in [1] (filed as antagonist) and in data set [8] was Active. Further, the Ki in data set [4] stood at 0.077 µM. The outcome in data set [5] and in data set [6] was inactive.
With `CC(C)C[C@H](NC(=O)[C@H](CCCCN)NC(=O)[C@@H]1CCCN1C(=O)[C@H](CCCNC(=N)N)NC(=O)[C@@H]1CSCC(=O)CSCCC(=O)N[C@@H](Cc2ccc(O)cc2)C(=O)NCC(=O)NCC(=O)N[C@@H](Cc2ccccc2)C(=O)N[C@@H](CC(C)C)C(=O)N[C@@H](CCCNC(=N)N)C(=O)N[C@@H](CCCNC(=N)N)C(=O)N1)C(=O)N[C@@H](CCCCN)C(=O)O` ([Mpa]YGGFLRRCRPKLK-OH; linker 1-9 via CH2COCH2), the EC50 in data set [9] was 0.27 µM. Moreover, in data set [7], the Stability result is reported as “Unstable”. Besides, in data set [1] (filed as antagonist), the outcome was Active. Further, the Ki in [4] was found to be 0.091 µM. Moreover, the result in data set [5] and in data set [6] was inactive.
In the case of `CC(C)C[C@H](NC(=O)[C@H](CCCCN)NC(=O)[C@@H]1CCCN1C(=O)[C@H](CCCNC(=N)N)NC(=O)[C@@H]1CSCSCCC(=O)N[C@@H](Cc2ccc(O)cc2)C(=O)NCC(=O)NCC(=O)N[C@@H](Cc2ccccc2)C(=O)N[C@@H](CC(C)C)C(=O)N[C@@H](CCCNC(=N)N)C(=O)N[C@@H](CCCNC(=N)N)C(=O)N1)C(=O)N[C@@H](CCCCN)C(N)=O` ([Mpa]YGGFLRRCRPKLK-NH2; linker 1-9 via CH2), the Activity in [2] was 5%. In addition, the outcome in [10], in [11], in [8] and in data set [12] was Active. The Ki in data set [4] amounted to 0.0068 µM. Also, the Kb in [13] was 0.0316 µM. In addition, the result in data set [5] and in data set [6] was inactive.
`CC[C@H](C)[C@H](NC(=O)[C@H](CCCN=C(N)N)NC(=O)[C@H](CCCN=C(N)N)NC(=O)[C@H](CC(C)C)NC(=O)[C@H](Cc1ccccc1)NC(=O)CNC(=O)CNC(=O)[C@@H](N)Cc1ccc(O)cc1)C(=O)N[C@@H](CCCN=C(N)N)C(=O)N1CCC[C@H]1C(=O)N[C@@H](CCCCN)C(=O)N[C@@H](CC(C)C)C(=O)N[C@@H](CCCCN)C(N)=O`: the Stability entry in data set [7] is reported as “Unstable”. The result in [1] was inactive.
For `CC[C@H](C)[C@@H]1NC(=O)[C@H](CCCNC(=N)N)NC(=O)[C@H](CCCNC(=N)N)NC(=O)[C@H](CC(C)C)NC(=O)[C@H](Cc2ccccc2)NC(=O)CNC(=O)CNC(=O)[C@H](Cc2ccc(O)cc2)NC(=O)CCSCSC[C@@H](C(=O)N[C@@H](CCCCN)C(=O)N[C@@H](CC(C)C)C(=O)N[C@@H](CCCCN)C(=O)O)NC(=O)[C@H](CCCNC(=N)N)NC1=O` ([Mpa]YGGFLRRIRCKLK-OH; linker 1-11 via CH2), the Stability result in [7] is “Unstable”. Moreover, the result in [1] (filed as antagonist) and in data set [8] was Active. In addition, the outcome in data set [5] and in [6] was inactive.
For `Oc1ccc2c3c1O[C@H]1c4[nH]c5c(c4C[C@@]4(O)[C@@H](C2)N(CC2CC2)CC[C@]314)C[C@@]1(O)[C@H]2Cc3ccc(O)c4c3[C@@]1(CCN2CC1CC1)[C@H]5O4`, the result in data set [14] was Active.
Consider `CC(C)C[C@H](NC(=O)[C@H](CCCCN)NC(=O)[C@@H]1CCCN1C(=O)[C@H](CCCNC(=N)N)NC(=O)[C@@H]1CSSCCC(=O)N[C@@H](Cc2ccc(O)cc2)C(=O)NCC(=O)NCC(=O)N[C@@H](Cc2ccccc2)C(=O)N[C@@H](CC(C)C)C(=O)N[C@@H](CCCNC(=N)N)C(=O)N[C@@H](CCCNC(=N)N)C(=O)N1)C(=O)N[C@@H](CCCCN)C(=O)O` ([Mpa]YGGFLRRCRPKLK-OH; disulfide 1-9), for which the result in data set [1] was inactive.
For the compound `CC[C@H](C)[C@@H]1NC(=O)[C@H](CCCNC(=N)N)NC(=O)[C@H](CCCNC(=N)N)NC(=O)[C@H](CC(C)C)NC(=O)[C@H](Cc2ccccc2)NC(=O)CNC(=O)CNC(=O)[C@H](Cc2ccc(O)cc2)NC(=O)CCSCSC[C@@H](C(=O)N[C@@H](CCCCN)C(=O)N[C@@H](CC(C)C)C(=O)N[C@@H](CCCCN)C(N)=O)NC(=O)[C@H](CCCNC(=N)N)NC1=O` ([Mpa]YGGFLRRIRCKLK-NH2; linker 1-11 via CH2), the result in data set [5] and in data set [6] was inactive.
